# From ChEMBL document CHEMBL4020766, “Design and synthesis of potent inhibitors of the mono(ADP-ribosyl)transferase, PARP14” (Bioorg Med Chem Lett, 2017)
# What was measured:
# [1] = biological target: T1, Protein mono-ADP-ribosyltransferase PARP14 (Homo sapiens, UniProt Q460N5); experiment: Inhibition of recombinant human His6-tagged PARP14 catalytic/WWE domain (1459 to 1801 residues) expressed in Escherichia coli BL21(DE3) preincubated for 15 mins followed by biotinylated NAD+ addition by chemiluminescence assay
# T1 sequence (Q460N5 whole entry, the tested form may be a part): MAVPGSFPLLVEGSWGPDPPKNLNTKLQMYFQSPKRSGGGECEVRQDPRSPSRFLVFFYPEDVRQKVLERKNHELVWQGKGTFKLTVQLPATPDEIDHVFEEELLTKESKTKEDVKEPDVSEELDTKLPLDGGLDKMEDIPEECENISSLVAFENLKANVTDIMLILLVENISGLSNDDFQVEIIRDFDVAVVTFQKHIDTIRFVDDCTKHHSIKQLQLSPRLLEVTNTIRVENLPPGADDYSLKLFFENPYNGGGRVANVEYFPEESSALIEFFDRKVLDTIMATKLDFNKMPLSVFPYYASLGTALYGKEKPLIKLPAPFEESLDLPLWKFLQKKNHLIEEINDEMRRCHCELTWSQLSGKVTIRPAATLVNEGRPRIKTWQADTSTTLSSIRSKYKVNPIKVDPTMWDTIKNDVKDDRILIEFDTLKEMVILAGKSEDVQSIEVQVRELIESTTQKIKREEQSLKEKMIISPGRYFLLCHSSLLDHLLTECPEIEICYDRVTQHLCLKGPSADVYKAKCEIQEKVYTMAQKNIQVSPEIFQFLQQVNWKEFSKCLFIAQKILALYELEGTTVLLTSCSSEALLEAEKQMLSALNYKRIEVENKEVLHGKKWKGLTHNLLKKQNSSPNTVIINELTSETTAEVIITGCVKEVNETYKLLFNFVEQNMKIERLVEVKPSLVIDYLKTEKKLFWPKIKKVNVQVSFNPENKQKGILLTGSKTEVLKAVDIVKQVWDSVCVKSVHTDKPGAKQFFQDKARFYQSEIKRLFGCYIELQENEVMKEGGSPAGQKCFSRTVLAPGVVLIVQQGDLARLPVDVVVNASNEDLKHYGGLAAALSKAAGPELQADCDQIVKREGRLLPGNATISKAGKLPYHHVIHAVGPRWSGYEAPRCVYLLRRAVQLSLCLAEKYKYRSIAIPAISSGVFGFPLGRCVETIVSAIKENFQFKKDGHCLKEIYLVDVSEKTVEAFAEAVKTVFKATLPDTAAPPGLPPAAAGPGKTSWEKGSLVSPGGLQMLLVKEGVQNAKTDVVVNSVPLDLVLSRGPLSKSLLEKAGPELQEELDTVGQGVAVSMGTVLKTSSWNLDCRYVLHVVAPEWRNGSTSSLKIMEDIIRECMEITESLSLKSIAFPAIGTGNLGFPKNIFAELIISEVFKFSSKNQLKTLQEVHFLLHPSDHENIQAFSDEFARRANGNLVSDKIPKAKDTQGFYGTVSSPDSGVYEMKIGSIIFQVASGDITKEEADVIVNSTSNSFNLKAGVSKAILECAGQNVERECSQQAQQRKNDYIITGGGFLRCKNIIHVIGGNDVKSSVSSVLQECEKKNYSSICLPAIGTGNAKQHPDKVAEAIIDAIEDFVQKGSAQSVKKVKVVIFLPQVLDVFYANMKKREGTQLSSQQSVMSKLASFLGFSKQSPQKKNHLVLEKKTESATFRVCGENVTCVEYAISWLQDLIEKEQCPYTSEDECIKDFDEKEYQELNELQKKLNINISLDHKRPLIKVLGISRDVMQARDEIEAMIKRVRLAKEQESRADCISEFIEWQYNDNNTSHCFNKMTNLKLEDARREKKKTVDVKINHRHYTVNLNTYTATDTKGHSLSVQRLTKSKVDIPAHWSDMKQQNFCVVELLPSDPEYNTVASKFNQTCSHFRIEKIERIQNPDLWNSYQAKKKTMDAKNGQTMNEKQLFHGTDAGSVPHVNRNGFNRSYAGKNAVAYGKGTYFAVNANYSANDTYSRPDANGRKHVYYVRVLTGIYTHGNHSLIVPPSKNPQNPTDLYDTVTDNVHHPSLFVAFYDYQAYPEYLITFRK
# [2] = biological target: T2, Poly [ADP-ribose] polymerase 1 (Homo sapiens, UniProt P09874); experiment: Inhibition of recombinant human full length His6-tagged PARP1 expressed in Escherichia coli BL21(DE3) preincubated for 15 mins followed by biotinylated NAD+ addition by chemiluminescence assay
# T2 sequence (P09874 whole entry, the tested form may be a part): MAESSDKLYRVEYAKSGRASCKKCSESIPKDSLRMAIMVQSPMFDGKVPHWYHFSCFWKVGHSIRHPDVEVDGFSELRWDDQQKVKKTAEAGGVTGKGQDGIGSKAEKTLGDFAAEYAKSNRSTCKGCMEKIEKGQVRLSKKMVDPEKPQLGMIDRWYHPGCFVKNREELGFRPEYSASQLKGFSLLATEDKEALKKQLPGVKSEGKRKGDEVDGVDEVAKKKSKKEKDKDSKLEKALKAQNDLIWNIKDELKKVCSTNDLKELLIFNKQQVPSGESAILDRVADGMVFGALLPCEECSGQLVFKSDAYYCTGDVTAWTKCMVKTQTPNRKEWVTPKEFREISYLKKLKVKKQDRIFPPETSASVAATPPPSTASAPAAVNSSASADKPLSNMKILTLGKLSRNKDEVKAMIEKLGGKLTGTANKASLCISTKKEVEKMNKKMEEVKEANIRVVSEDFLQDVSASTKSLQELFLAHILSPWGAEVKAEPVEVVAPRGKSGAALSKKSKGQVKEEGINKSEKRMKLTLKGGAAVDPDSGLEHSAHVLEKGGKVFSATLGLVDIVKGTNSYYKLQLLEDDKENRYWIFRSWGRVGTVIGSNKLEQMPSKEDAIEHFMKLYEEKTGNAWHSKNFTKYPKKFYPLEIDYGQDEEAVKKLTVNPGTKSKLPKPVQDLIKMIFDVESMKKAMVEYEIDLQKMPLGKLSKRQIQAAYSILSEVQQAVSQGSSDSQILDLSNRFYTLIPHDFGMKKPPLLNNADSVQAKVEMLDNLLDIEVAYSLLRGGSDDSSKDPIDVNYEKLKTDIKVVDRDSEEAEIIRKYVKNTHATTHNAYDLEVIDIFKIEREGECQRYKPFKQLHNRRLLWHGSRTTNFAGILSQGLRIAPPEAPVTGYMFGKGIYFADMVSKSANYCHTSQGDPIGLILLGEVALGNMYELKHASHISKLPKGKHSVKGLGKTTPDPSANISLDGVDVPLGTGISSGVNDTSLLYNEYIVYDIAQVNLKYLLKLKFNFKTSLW
# Homo sapiens = species: Homo sapiens; experiment: Selectivity ratio of IC50 for recombinant human His6-tagged PARP5a catalytic domain (1091 to 1325 residues) to IC50 for recombinant human His6-tagged PARP14 catalytic/WWE domain (1459 to 1801 residues)
# [3] = biological target: T3, Poly [ADP-ribose] polymerase tankyrase-1 (Homo sapiens, UniProt O95271); experiment: Inhibition of recombinant human His6-tagged PARP5a catalytic domain (1091 to 1325 residues) expressed in Escherichia coli BL21(DE3) preincubated for 15 mins followed by biotinylated NAD+ addition by chemiluminescence assay
# T3 sequence (O95271 whole entry): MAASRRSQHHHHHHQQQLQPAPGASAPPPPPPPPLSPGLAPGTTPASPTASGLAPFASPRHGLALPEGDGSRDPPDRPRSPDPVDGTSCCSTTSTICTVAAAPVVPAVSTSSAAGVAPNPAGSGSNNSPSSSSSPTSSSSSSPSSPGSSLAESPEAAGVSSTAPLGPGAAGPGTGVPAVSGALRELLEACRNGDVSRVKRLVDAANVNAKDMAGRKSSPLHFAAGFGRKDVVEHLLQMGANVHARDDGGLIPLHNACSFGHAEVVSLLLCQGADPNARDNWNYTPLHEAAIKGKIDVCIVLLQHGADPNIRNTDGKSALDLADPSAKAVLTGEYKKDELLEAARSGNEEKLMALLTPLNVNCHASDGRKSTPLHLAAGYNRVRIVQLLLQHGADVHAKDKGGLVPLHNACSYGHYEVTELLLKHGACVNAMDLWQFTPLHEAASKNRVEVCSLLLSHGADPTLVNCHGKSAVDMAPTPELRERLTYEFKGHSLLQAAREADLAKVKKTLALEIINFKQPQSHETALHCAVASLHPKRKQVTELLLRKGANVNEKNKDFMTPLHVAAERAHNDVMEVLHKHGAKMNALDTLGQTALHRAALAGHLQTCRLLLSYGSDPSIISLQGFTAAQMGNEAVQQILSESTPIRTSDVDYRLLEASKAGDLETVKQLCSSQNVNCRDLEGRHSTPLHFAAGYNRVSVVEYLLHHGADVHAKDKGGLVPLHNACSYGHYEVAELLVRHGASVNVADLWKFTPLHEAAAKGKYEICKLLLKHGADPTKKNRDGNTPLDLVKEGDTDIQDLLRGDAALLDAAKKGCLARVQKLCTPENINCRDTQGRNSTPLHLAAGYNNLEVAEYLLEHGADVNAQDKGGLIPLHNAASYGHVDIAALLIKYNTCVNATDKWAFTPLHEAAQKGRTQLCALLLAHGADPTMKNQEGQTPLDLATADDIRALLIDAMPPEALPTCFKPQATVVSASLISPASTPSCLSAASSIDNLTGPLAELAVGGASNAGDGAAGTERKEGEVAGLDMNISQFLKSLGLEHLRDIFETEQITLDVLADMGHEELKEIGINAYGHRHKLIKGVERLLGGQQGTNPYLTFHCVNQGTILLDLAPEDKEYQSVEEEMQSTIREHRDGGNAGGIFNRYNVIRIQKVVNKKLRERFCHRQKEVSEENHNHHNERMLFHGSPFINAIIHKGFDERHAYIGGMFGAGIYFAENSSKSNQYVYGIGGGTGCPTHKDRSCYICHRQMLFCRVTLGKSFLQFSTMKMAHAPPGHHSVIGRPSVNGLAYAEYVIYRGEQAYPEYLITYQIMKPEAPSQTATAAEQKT
# [4] = biological target: T4, Protein mono-ADP-ribosyltransferase PARP16 (Homo sapiens, UniProt Q8N5Y8); experiment: Inhibition of His6-tagged PARP16 (unknown origin) preincubated for 15 mins followed by biotinylated NAD+ addition by chemiluminescence assay
# T4 sequence (Q8N5Y8 whole entry): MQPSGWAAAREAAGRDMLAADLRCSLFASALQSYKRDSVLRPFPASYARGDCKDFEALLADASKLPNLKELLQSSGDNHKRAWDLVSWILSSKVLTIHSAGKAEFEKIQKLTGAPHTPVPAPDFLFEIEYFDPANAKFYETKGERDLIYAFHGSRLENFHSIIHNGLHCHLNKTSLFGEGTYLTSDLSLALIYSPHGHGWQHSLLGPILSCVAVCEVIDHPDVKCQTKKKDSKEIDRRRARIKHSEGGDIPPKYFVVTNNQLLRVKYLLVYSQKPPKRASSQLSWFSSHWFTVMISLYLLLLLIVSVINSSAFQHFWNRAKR
# [5] = biological target: T5, Protein mono-ADP-ribosyltransferase PARP15 (Homo sapiens, UniProt Q460N3); experiment: Inhibition of His6-tagged PARP15 (unknown origin) preincubated for 15 mins followed by biotinylated NAD+ addition by chemiluminescence assay
# T5 sequence (Q460N3 whole entry): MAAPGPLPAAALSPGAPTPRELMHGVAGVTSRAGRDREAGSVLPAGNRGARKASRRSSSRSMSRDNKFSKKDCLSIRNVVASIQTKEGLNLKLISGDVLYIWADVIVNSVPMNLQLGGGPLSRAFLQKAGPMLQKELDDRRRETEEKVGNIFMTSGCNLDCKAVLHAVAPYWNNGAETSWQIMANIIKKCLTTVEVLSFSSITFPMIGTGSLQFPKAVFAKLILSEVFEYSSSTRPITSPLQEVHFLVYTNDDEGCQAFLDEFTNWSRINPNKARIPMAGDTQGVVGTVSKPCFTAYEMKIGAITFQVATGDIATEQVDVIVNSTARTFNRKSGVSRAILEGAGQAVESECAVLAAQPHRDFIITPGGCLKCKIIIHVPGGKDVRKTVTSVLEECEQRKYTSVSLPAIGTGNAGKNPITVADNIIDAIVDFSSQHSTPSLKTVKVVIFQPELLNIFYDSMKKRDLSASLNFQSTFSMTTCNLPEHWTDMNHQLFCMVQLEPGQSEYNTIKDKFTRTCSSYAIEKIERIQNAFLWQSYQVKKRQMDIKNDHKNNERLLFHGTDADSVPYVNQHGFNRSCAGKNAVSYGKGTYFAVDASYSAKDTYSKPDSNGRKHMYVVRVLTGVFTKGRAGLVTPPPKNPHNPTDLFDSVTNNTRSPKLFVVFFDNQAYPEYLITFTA
# [6] = biological target: T6, Protein mono-ADP-ribosyltransferase PARP12 (Homo sapiens, UniProt Q9H0J9); experiment: Inhibition of His6-tagged PARP12 (unknown origin) preincubated for 15 mins followed by biotinylated NAD+ addition by chemiluminescence assay
# T6 sequence (Q9H0J9 whole entry): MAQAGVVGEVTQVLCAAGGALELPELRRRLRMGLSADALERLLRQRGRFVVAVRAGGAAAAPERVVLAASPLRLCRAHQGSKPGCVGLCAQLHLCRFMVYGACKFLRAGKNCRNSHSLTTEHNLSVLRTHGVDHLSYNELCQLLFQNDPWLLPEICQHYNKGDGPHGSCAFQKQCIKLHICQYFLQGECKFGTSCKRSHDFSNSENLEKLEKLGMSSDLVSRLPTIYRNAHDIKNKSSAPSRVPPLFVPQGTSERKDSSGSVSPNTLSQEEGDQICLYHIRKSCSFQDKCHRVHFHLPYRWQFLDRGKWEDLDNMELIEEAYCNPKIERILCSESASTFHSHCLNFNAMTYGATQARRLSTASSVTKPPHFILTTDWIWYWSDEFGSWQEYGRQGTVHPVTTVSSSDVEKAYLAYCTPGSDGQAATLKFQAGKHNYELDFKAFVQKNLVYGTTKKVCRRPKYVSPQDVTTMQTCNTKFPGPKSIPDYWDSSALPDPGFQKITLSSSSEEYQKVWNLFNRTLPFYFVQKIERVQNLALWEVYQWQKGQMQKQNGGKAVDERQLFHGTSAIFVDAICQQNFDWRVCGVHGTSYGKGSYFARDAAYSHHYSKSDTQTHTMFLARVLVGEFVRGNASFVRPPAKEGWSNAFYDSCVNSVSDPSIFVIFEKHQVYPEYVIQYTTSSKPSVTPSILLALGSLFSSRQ
# [7] = biological target: T2, Poly [ADP-ribose] polymerase 1; experiment: Inhibition of recombinant human full length His6-tagged PARP1 expressed in Escherichia coli BL21(DE3) at 5 uM preincubated for 15 mins followed by biotinylated NAD+ addition by chemiluminescence assay relative to control
# [8] = biological target: T1, Protein mono-ADP-ribosyltransferase PARP14; experiment: Inhibition of recombinant human His6-tagged PARP14 catalytic/WWE domain (1459 to 1801 residues) expressed in Escherichia coli BL21(DE3) at 5 uM preincubated for 15 mins followed by biotinylated NAD+ addition by chemiluminescence assay relative to control
SMILES,IC50 ([1]; read-out: IC50) [µM],IC50 [2] [µM],Ratio IC50 (Homo sapiens),IC50 ([3]; read-out: IC50) [µM],further results
NC(=O)c1cccc(NC(=O)/C=C\C(=O)N2CCN(c3ncccn3)CC2)c1,2.8,,,,
NC(=O)c1cccc(N2C(=O)CC(N3CCN(c4ccccc4F)CC3)C2=O)c1 (stereo unspecified),> 20,,,,
NC(=O)c1cccc(NC(=O)/C=C\C(=O)N2CCCCC2Cc2ccccc2)c1 (stereo unspecified),3.5,,,,
CCOC(=O)CC1CCN(C(=O)/C=C\C(=O)Nc2cccc(C(N)=O)c2)CC1,2.4,,,,IC50 ([1]; read-out: pIC50 (converted)): 0.407 µM
NC(=O)c1cccc(NC(=O)/C=C\C(=O)N2CCC(Cc3ccccc3)CC2)c1,0.45,0.23,11,4.8,
CC(C)(C)OC(=O)N1CCN(C(=O)/C=C\C(=O)Nc2cccc(C(N)=O)c2)CC1,0.37,,,,
NC(=O)c1cccc(NC(=O)/C=C\C(=O)N2CCCC(Oc3ccccc3)C2)c1 (stereo unspecified),1.4,,,,inhibition [7]: 90%
NC(=O)c1cccc(NC(=O)/C=C\C(=O)N2CCCC(c3ccccc3)C2)c1 (stereo unspecified),0.69,1.6,,2.7,IC50 ([3]; read-out: pIC50 (converted)): 0.575 µM
CCOC(=O)C1CCN(C(=O)/C=C\C(=O)Nc2cccc(C(N)=O)c2)CC1,,,,,inhibition [8]: 28%
NC(=O)c1cccc(NC(=O)/C=C\C(=O)N2CCC(CCc3ccccc3)CC2)c1,0.65,,,,IC50 ([1]; read-out: pIC50 (converted)): 0.676 µM
NC(=O)c1cccc(NC(=O)/C=C\C(=O)N2CCCCC2c2ccccc2)c1 (stereo unspecified),1.1,,,,
CCOC(=O)C1CCCN(C(=O)/C=C\C(=O)Nc2cccc(C(N)=O)c2)C1 (stereo unspecified),,,,,inhibition [8]: 21%
NC(=O)c1cccc(NC(=O)/C=C\C(=O)N2CCC(c3ccc(F)cc3)CC2)c1,0.27,0.27,30,8,

# The next lines start with results.
IC50 ([1]; read-out: IC50) [µM],IC50 [2] [µM],Ratio IC50 (Homo sapiens),IC50 ([3]; read-out: IC50) [µM],SMILES,further results
2.2,,,,NC(=O)c1cccc(NC(=O)/C=C\C(=O)N2CCC(c3ccccc3)CC2)c1,
0.9,0.37,6.7,6,NC(=O)c1cccc(NC(=O)/C=C\C(=O)N2CCN(c3ccccc3)CC2)c1,
0.7,0.56,3.9,2.7,NC(=O)c1cccc(NC(=O)/C=C\C(=O)N2CCN(c3ccc(F)cc3)CC2)c1,IC50 [4]: 0.56 µM; IC50 [5]: 0.52 µM; IC50 [6]: 8.2 µM
3.4,,,,COc1ccc(N2CCN(C(=O)/C=C\C(=O)Nc3cccc(C(N)=O)c3)CC2)cc1,
0.16,0.22,5.6,0.9,NC(=O)c1cccc(NC(=O)/C=C\C(=O)N2CCN(c3ccc(Cl)cc3)CC2)c1,IC50 ([1]; read-out: pIC50 (converted)): 0.617 µM; IC50 ([3]; read-out: pIC50 (converted)): 0.977 µM
0.41,0.51,23,9.4,NC(=O)c1cccc(NC(=O)/C=C\C(=O)N2CCN(c3ccccc3F)CC2)c1,
4.2,0.8,,9.8,NC(=O)c1cccc(NC(=O)/C=C\C(=O)N2CCN(c3ccc(-c4ccccc4)cc3)CC2)c1,
